Data: patent US5554542A, “Immunoassay for isothiazolones” (Rohm and Haas Company, priority 1993, dated 1996)

System: antibodies in mouse serum
Assay: Competitive inhibition ELISA (CIEIA) screening of mouse sera for isothiazolone antibodies
Format: binding, BALB/c mice
Settings: for % Inhibition: inhibitor final 1 ppm, b98 says 10^-4 M; for Reactivity of serum antibodies toward inhibitor: serum of mouse 1E, immunized with 573-THY
Method: Blood samples were taken from the mice immunized in the above example. The sera were separated from the red blood cells by centrifugation. The sera were then screened for activity using competitive inhibition ELISA (CIEIA). Ninety-six well polystyrene EIA ([…]) plates were coated with 100 μl of 651 conjugated to BSA (651-BSA), 651 conjugated to THY (651-THY), 573 conjugated to BSA (573-BSA), or 573 conjugated to THY (573-THY) for at least two hours at room temperature or 16 hours at 4° C. Unbound material was washed from the wells with five washes of PBS-T. The wells then received 50 μl of buffer alone (PBS-T) or inhibitors, either 651 or 573, each diluted to 2 ppm in buffer. The wells then received 50 μl of mouse serum, so that each serum was reacted with either buffer, 651 or 573 (inhibitors). […] The wells were incubated for 30-60 minutes at room temperature. They were then washed five times with PBS-T to remove unbound material and each well then received 100 μl of a 1 μg/ml solution of biotinylated horse anti-mouse IgG (Vector Laboratories, Burlingame, Calif.), and the assay continued as described for the ELISA, supra.
If the antibodies in a serum were reactive with one or both of the inhibitors in solution in the wells, the antibody molecules, or a percentage of the antibody molecules, would bind to the inhibitors, and would therefore form an antibody-inhibitor complex which would stay in solution and be removed from the plate during the washing step. In such a case, the binding of the antibody to the inhibitor would reduce the number of antibody molecules available to bind to the coating antigen, 651-BSA. Because fewer antibody molecules are attached to the 651-BSA, there is a reduction in the number of biotinylated horse anti-mouse IgG molecules bound, resulting in fewer molecules of avidin-peroxidase complex being bound, resulting in reduced hydrolysis of the substrate, leading ultimately to lower absorbances. In all cases, the inhibitor concentration was 10^-4 M.

[1] = mouse 1D serum, immunogen 573-BSA, coating conjugate 573-THY
[2] = mouse 1D serum, immunogen 573-BSA, coating conjugate 651-THY
[3] = mouse 1E serum, immunogen 573-THY, coating conjugate 573-BSA
[4] = mouse 1E serum, immunogen 573-THY, coating conjugate 651-BSA
[5] = mouse 2D serum, immunogen 573-BSA, coating conjugate 651-THY
[6] = mouse 2E serum, immunogen 573-THY, coating conjugate 573-BSA
[7] = mouse 2E serum, immunogen 573-THY, coating conjugate 651-BSA

Row | SMILES | % Inhibition [1] [%] | % Inhibition [2] [%] | % Inhibition [3] [%] | % Inhibition [4] [%] | % Inhibition [5] [%] | % Inhibition [6] [%] | % Inhibition [7] [%] | Reactivity of serum antibodies toward inhibitor
1 | Cn1sccc1=O [compound 573, 2-methyl-3-isothiazolone] | 12 | 0 | 21 | 28 | 0 | 10 | 12 | reactive
2 | Cn1sc(Cl)cc1=O [compound 651, 5-chloro-2-methyl-3-isothiazolone] | 0 | 10 | 44 | 34 | 12 | 12 | 7 | reactive
